From patent US20230374017A1, “COMPOSITIONS AND METHODS FOR ACTIVATING PYRUVATE KINASE” (The Regents of the University of Michigan, priority 2020, published 2023)

Columns and labels:
human recombinant PKM2 = biological target: T1, human recombinant PKM2 (Homo sapiens, UniProt P14618); assay: Pyruvate kinase activity enzyme assay, recombinant enzyme (LDH-coupled, NADH depletion at 340 nm); type: biochemical; settings: normalized to DMSO-treated PKM2 activity; for EC50: recombinant PKM2 20 nM; for Emax: read-out: Max Activation
T1 construct: purchased Sigma SAE0021
T1 sequence (P14618 whole entry): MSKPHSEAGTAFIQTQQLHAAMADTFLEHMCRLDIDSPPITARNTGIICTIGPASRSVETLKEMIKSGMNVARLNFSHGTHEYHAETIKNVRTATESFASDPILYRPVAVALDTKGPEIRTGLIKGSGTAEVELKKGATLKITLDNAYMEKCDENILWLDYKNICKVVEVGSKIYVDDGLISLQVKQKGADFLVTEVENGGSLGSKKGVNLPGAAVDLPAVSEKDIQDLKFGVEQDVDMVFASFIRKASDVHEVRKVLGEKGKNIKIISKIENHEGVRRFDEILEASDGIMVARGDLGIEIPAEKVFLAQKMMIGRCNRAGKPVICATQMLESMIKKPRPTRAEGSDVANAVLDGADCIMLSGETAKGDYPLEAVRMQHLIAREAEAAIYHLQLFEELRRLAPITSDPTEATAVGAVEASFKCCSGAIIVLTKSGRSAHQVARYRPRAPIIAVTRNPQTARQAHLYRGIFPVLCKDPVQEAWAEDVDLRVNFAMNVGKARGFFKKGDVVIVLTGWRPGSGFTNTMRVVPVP
Experimental: Pyruvate Kinase Activity Enzyme Assay. Recombinant Enzyme. A continuous, enzyme-coupled assay, which uses lactate dehydrogenase (LDH) and measures the depletion of NADH via absorbance at 340 nm was utilized to determine the pyruvate kinase activity. For AC50 measurements (concentration of activator necessary to achieve half-maximal activation) with ML-265, assays were performed in 96-well format using 200 μL/well assay volume with final concentrations of 20 nM human recombinant PKM2 (Sigma, SAE0021), differing concentrations of ML-265, 0.5 mM PEP, 1 mM ADP, 0.2 mM NADH, and 8 U of lactate dehydrogenase (LDH) in an assay buffer of 50 mM Tris-HCl (pH 7.4), 100 mM KCl, and 5 mM MgCl2. The decrease in absorbance at 340 nm was monitored using a SPECTROstar Omega plate reader (BMG LABTECH Inc., Cary, NC, USA). Initial velocities were calculated with the MARS software. Data were normalized to DMSO (dimethyl sulfoxide)-treated PKM2 activity.

[1] = biological target: T2, pyruvate kinase activity, 661W cell line (Mus musculus, UniProt P52480); assay: Pyruvate kinase activity in 661W cell lysates after 2 hours treatment; type: cell-based; settings: 661W cells, 2 hours incubation, activity normalized to total protein; for Emax: read-out: Max Activation (cell)
T2 construct: endogenous in cells; host or cells: 661W cell line
T2 sequence (P52480 whole entry): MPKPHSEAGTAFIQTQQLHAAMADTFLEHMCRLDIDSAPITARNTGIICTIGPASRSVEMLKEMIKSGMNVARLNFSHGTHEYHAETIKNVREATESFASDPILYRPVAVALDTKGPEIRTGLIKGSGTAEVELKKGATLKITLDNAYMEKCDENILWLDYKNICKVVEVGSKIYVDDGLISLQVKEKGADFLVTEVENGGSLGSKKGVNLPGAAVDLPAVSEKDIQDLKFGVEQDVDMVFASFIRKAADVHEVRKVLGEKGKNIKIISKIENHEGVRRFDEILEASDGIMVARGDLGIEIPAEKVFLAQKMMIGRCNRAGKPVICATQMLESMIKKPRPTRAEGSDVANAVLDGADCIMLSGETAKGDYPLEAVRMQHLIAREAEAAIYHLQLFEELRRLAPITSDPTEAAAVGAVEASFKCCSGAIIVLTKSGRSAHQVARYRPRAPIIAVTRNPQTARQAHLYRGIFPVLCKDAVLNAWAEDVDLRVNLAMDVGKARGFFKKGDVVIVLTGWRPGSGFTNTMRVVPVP
Experimental: Cell culture. For 661W cell line experiments, media was replaced prior to the start of treatment with DMSO or ML-265. Cells were incubated with DMSO or different concentrations of ML-265 for 2 hours. Cells were lysed and homogenized in RIPA Lysis and Extraction Buffer (Catalog number: 89900, Life Technologies Corporation, Grand Island, NY) with protease inhibitors (Complete-Mini, Roche Diagnostics, Indianapolis, IN) and cellular debris was removed by centrifugation at 10,000 rpm for 10 minutes. Ten microliters of the supernatant was used to assess pyruvate kinase activity, and the activity was normalized to total protein content as previously described.

| EC50 (human recombinant PKM2) | Emax (human recombinant PKM2; recombinant PKM2) | EC50 [1] | Emax [1] | Max Activation (human recombinant PKM2; recombinant PKM2) | Max Activation (cell) [1] | SMILES |
| --- | --- | --- | --- | --- | --- | --- |
| 45 nM | 286% | 235 nM | 325% |  |  | Cn1c2cc(Oc3cccc(N)c3)ccc2c2cnn(Cc3cccc(N)c3)c(=O)c21 [Example 80, 3-(3-aminobenzyl)-7-(3-aminophenoxy)-5-methyl-3,5-dihydro-4H-pyridazino[4,5-b]indol-4-one] |
| 82 nM | 221% | 134 nM | 376% |  |  | Cc1cccc(Cn2ncc3c4ccc(Oc5ccc6[nH]ncc6n5)cc4n(C)c3c2=O)n1 [Example 62, 7-((1H-pyrazolo[4,3-b]pyridin-5-yl)oxy)-5-methyl-3-((6-methylpyridin-2-yl)methyl)-3,5-dihydro-4H-pyridazino[4,5-b]indol-4-one] |
| 82 nM | 191% | 162 nM | 210% |  |  | Cn1c2cc(Oc3ccc4[nH]ncc4n3)ccc2c2cnn(Cc3ccccc3F)c(=O)c21 [Example 70, 7-((1H-pyrazolo[4,3-b]pyridin-5-yl)oxy)-3-(2-fluorobenzyl)-5-methyl-3,5-dihydro-4H-pyridazino[4,5-b]indol-4-one] |
| 106 nM | 90% |  |  |  |  | COc1ccc(Cn2ncc3c4ccc(C)cc4n(C)c3c2=O)cc1 [Example 2, 3-(4-Methoxybenzyl)-5,7-dimethyl-3,5-dihydro-4H-pyridazino[4,5-b]indol-4-one] |
| 22 nM | 232% | 104 nM | 189% |  |  | Cn1c2cc(Oc3ncnc4[nH]ncc34)ccc2c2cnn(Cc3ccccc3F)c(=O)c21 [Example 73, 7-((1H-pyrazolo[3,4-d]pyrimidin-4-yl)oxy)-3-(2-fluorobenzyl)-5-methyl-3,5-dihydro-4H-pyridazino[4,5-b]indol-4-one] |
| 31 nM | 219% | 78 nM | 302% |  |  | Cc1cccc(Cn2ncc3c4ccc(Oc5cccc(O)n5)cc4n(C)c3c2=O)n1 [Example 63, 7-((6-hydroxypyridin-2-yl)oxy)-5-methyl-3-((6-methylpyridin-2-yl)methyl)-3,5-dihydro-4H-pyridazino[4,5-b]indol-4-one] |
| 428 nM | 193% | 28 nM | 310% |  |  | Cc1ccc2c3cnn(Cc4cccc(N)c4)c(=O)c3n(C)c2c1 [Example 3, 3-(3-Aminobenzyl)-5,7-dimethyl-3,5-dihydro-4H-pyridazino[4,5-b]indol-4-one] |
| 40 nM | 231% | 58 nM | 279% |  |  | Cc1cc2c3cnn(Cc4ccccc4F)c(=O)c3n(C)c2s1 [Example 16, 6-(2-Fluorobenzyl)-2,8-dimethyl-6,8-dihydro-7H-thieno[3′,2′:4,5]pyrrolo[2,3-d]pyridazin-7-one] |
| 35 nM | 195% | 47 nM | 247% |  |  | Cn1c2cc(Oc3cccc(Cl)n3)ccc2c2cnn(Cc3cccc(N)c3)c(=O)c21 [Example 78, 3-(3-aminobenzyl)-7-((6-chloropyridin-2-yl)oxy)-5-methyl-3,5-dihydro-4H-pyridazino[4,5-b]indol-4-one] |
| 97 nM | 225% | 66 nM | 305% |  |  | COc1cc2c(cc1F)c1cnn(Cc3cccc(C)n3)c(=O)c1n2C [Example 52, 8-fluoro-7-methoxy-5-methyl-3-((6-methylpyridin-2-yl)methyl)-3,5-dihydro-4H-pyridazino[4,5-b]indol-4-one] |
| 63 nM | 195% | 172 nM | 352% |  |  | Cn1c2cc(Oc3cccc(F)n3)ccc2c2cnn(Cc3cc[nH]n3)c(=O)c21 [Example 86, 3-((1H-pyrazol-3-yl)methyl)-7-((6-fluoropyridin-2-yl)oxy)-5-methyl-3,5-dihydro-4H-pyridazino[4,5-b]indol-4-one] |
| 41 nM | 264% | 23 nM | 292% |  |  | Cc1ccc2c3cnn(Cc4cccc(F)c4)c(=O)c3n(C)c2n1 [Example 18, 7-(3-fluorobenzyl)-2,9-dimethyl-7,9-dihydro-8H-pyrido[3′,2′:4,5]pyrrolo[2,3-d]pyridazin-8-one] |
| 72 nM | 218% | 60 nM | 202% |  |  | COc1cccc(Cn2ncc3c4ccc(Oc5cccc(F)n5)cc4n(C)c3c2=O)c1 [Example 90, 7-((6-fluoropyridin-2-yl)oxy)-3-(3-methoxybenzyl)-5-methyl-3,5-dihydro-4H-pyridazino[4,5-b]indol-4-one] |
| 53 nM |  | 75 nM |  | 299% | 273% | Cn1c2cc(O)c(F)cc2c2cnn(Cc3cccc(N)c3)c(=O)c21 [Example 54, 3-(3-aminobenzyl)-8-fluoro-7-hydroxy-5-methyl-3,5-dihydro-4H-pyridazino[4,5-b]indol-4-one] |
| 62 nM | 234% | 81 nM | 370% |  |  | Cn1c2cc(Oc3cccc(F)n3)ccc2c2cnn(Cc3ccccc3F)c(=O)c21 [Example 74, 3-(2-fluorobenzyl)-7-((6-fluoropyridin-2-yl)oxy)-5-methyl-3,5-dihydro-4H-pyridazino[4,5-b]indol-4-one] |
| 28 nM | 165% | 69 nM | 278% |  |  | Cn1c2cc(Oc3nccc4[nH]ncc34)ccc2c2cnn(Cc3ccccc3F)c(=O)c21 [Example 71, 7-((1H-pyrazolo[4,3-c]pyridin-4-yl)oxy)-3-(2-fluorobenzyl)-5-methyl-3,5-dihydro-4H-pyridazino[4,5-b]indol-4-one] |
| 25 nM | 299% | 75 nM | 273% |  |  | Cn1c2cc(O)c(F)cc2c2cnn(Cc3cccc(N)c3)c(=O)c21 [Example 21, 3-(3-aminobenzyl)-8-fluoro-7-hydroxy-5-methyl-3,5-dihydro-4H-pyridazino[4,5-b]indol-4-one] |
| 117 nM | 212% | 15 nM | 431% |  |  | Cc1ccc2c3cnn(Cc4ccccc4)c(=O)c3n(C)c2c1 [Example 1, 3-Benzyl-5,7-dimethyl-3,5-dihydro-4H-pyridazino[4,5-b]indol-4-one] |
| 63 nM | 330% | 76 nM | 315% |  |  | Cn1c2cc(Oc3cccc(F)n3)ccc2c2cnn(Cc3cccc4[nH]ncc34)c(=O)c21 [Example 85, 3-((1H-indazol-4-yl)methyl)-7-((6-fluoropyridin-2-yl)oxy)-5-methyl-3,5-dihydro-4H-pyridazino[4,5-b]indol-4-one] |
| 26 nM | 307% |  |  |  |  | COc1ccc2c(c1)c1cnn(Cc3cccc(N)c3)c(=O)c1n2C [Example 27, 3-(3-aminobenzyl)-8-methoxy-5-methyl-3,5-dihydro-4H-pyridazino[4,5-b]indol-4-one] |
| 131 nM | 123% |  |  |  |  | COc1ccc2c3cnn(Cc4ccc5ncccc5c4)c(=O)c3n(C)c2c1 [Example 12, 7-Methoxy-5-methyl-3-(quinolin-6-ylmethyl)-3,5-dihydro-4H-pyridazino[4,5-b]indol-4-one] |
| 110 nM | 170% |  |  |  |  | COc1ccc2c3cnn(Cc4cn5ccccc5n4)c(=O)c3n(C)c2c1 [Example 11, 3-(Imidazo[1,2-a]pyridin-2-ylmethyl)-7-methoxy-5-methyl-3,5-dihydro-4H-pyridazino[4,5-b]indol-4-one] |
